A short description of this assay: The highest concentration employed in the cytotoxicity assay was reported. It counts as functional.

Each structure is given as a SMILES string.

The values that follow come from ChEMBL document CHEMBL1127526, “A comparison of the cytotoxic and physical properties of aziridinyl quinone derivatives based on the pyrrolo[1,2-a]benzimidazole and pyrrolo[1,2-a]indole ring systems” (J Med Chem, 1994).

Molecule `CC(=O)OC1CCn2c1nc1c2C(=O)C(C)=C(N2CC2)C1=O` (stereo unspecified) gave a Concentration of 1 M.
